Data from patent US12421257B2, “Compositions and methods for inhibiting group II intron RNA” (YALE UNIVERSITY, priority 2018, dated 2025).
≈ marks a conversion by molar mass, not a printed value.

Assays:
C. parapsilosis = assay: MIC determination against C. parapsilosis; type: cell-based, Candida parapsilosis; conditions: Lodderomyces parapsilosis; RPMI-1640, 35° C. or 37° C., turbidity after 24 and 48 hours
Protocol: Minimal inhibitory concentrations (MICs) for C. parapsilosis were determined in a final volume of 100 μl. Fresh stock solutions of control antifungal drugs (Amphotericin B and Itraconazole) and of test compounds were prepared at 3.2 mg/ml and at 12.8 mg/ml respectively in DMSO. After placing the stock in the first well, solutions of test compounds and antifungal controls were serially diluted 1:2 with DMSO into the first […] successive wells of a 12-well row on a 96-well plate (as described above). After dilution, 2.5 μl from each of these 10 wells were transferred onto a separate 96-well plate and diluted with 122.5 μl of RPMI-1640 medium (Sigma). Wells 11 and 12 contained 2.5 μl DMSO and 122.5 μl of RPMI-1640 as a positive growth control (no compound) and sterility control (no inoculum added). A 50 μl volume was taken from each of the RPMI dilutions (wells 1-12) and transferred to the wells of a third 96-well plate (assay plate), where they were mixed with an equal volume (50 μl) of freshly prepared inoculum of C. parapsilosis in RPMI-1640 medium, set at a density to provide the 0.5×10^3 to 2.5×10^3 colony forming units per 1 mL (except for the sterility control). Sterility control was mixed with 50 μl of sterile medium.
The final concentration range of the assay was 0.25-128 μg/ml for test compounds and 0.0625-32 μg/ml for Amphotericin B and Itraconazole. The final concentration of DMSO was 1%. The assay plate was incubated at 35° C. or 37° C. and visually analyzed for turbidity after 24 and 48 hours of incubation. The lowest compound concentration at which no growth was apparent is reported as the MIC. All experiments were performed in triplicate.

HEK-293T cells = assay: Cytotoxicity in HEK-293T cells (Cell Titer Glo); type: cell-based, human; conditions: Homo sapiens, cytotoxicity, 24 hours with compound, read-out: IC50 HEK-293
Protocol: HEK-293T cells were cultured in Dulbecco's Modified Eagle's Medium (DMEM) (Gibco) supplemented with 10% Fetal Bovine Serum (FBS, Gibco) and 100 U/ml of Penicillin-Streptomycin (Gibco) at 37° C. and 5% CO2. For the cytotoxicity experiments, cells were aliquoted into black 96-well plates with a clear bottom (Corning 3603) at a concentration of 10,000 cells per well. The cells were grown at 37° C., 5% CO2 for 5-6 hours, then the medium was replaced with the same medium without FBS and cells were grown at 37° C., 5% CO2 for 24 hours. Freshly prepared stock solutions of test compounds (12.8 mg/ml in DMSO) were serially diluted 1:2 with DMSO into the first 11 successive wells of a 12-well row on a 96-well plate as described above. Well 12 was used as a growth control (no compound). […] After incubation, cell viability was determined using the luminescent Cell Titer Glo cell viability assay (Promega), in which 100 μl of the assay reagent was added to each well of the assay plate. After gentle shaking for 7-10 minutes, the plates were analyzed on a Synergy H1 plate reader (BioTek). Luminescence was plotted against the compound concentration and IC50 values were determined by fitting the data to a 4-parameter logistic function c+(d−c)/(1+(x/a)^b), where a is the IC50, b is the slope parameter, c is the minimum response and d is the maximum response. Experiments were replicated to ensure reproducibility.

[1] = test system: ai5γ group II intron (D135 ribozyme); assay: Fluorescent D135 ribozyme cleavage assay (IC50); type: biochemical, Saccharomyces cerevisiae; conditions: D135 ribozyme cleavage of substrate 17/2 DL, 100 mM MgCl2, 500 mM KCl, 37° C., 10 minutes
Protocol: The D135 ribozyme (Su et al., 2005, Nucleic Acids Res, 33:6674-6687), fluorescently labeled oligo substrate 17/2 DL (FIG. 1A-FIG. 1D) (both at 20 nM final concentrations in 50 mM MOPS, pH 7.0, 100 mM MgCl2, 0.5M KCl), and the test compounds (final concentration of 10 μM in 50 mM MOPS, pH 7.0, 100 mM MgCl2, 0.5M KCl) were aliquoted onto black non-binding 384-well plates (Corning 3757) using the multidrop combi (ThermoFisherScientific) and pintool (V & P Scientific). The reaction mixtures were incubated at 37° C. for 45 minutes, then the reaction was quenched with 100 mM EDTA and fluorescence intensity was analyzed on a Tecan Infinite multimode plate reader (λex 520 nm, λem 560 nm, 5 nm bandwidth). Data were normalized to untreated wells and wells lacking the D135 ribozyme, and percent of inhibition was calculated using ActivityBase (IDBS). The Z′-factor was calculated as described (Zhang et al., 1999, J Biomol Screen, 4:67-73): Z′=1−3×(σp+σn)/|μp−μn|, • where μp and σn are mean value and standard deviation for the positive control (substrate only), and where μn and σn are mean value and standard deviation for the negative control (no compound). The average Z′-factor from the screen was 0.83±0.03. IC50 Measurement for the Small Molecule Inhibition of the D135 Ribozyme Cleavage Reaction.
Black 96-well plates (Corning 3695) were filled with 50 μl of solution containing 20 nM D135 ribozyme, 20 nM double-labeled substrate 17/2 DL and small molecule inhibitor in 50 mM MOPS, pH 7.0, 100 mM MgCl2 and 500 mM KCl. Small molecule inhibitors were tested at 19 different concentrations ranging from 5 nM to 1 mM. Plates were incubated at 37° C. for 10 minutes, then reaction mixtures were quenched with 100 mM EDTA and analyzed on the Synergy H1 plate reader (BioTek). Each experiment was performed in triplicate. Data were fit to a 4-parameter logistic function c+(d−c)/(1+(x/a)^b), where a is the IC50, b is the slope parameter, c is the minimum response and d is the maximum response. Data are reported as average±s.e.m

ai5γ group II intron = assay: Radioanalytic self-splicing assay of SE RNA (Ki); type: biochemical, Saccharomyces cerevisiae; conditions: 8 mM MgCl2, 100 mM KCl, pH 7.5, 30° C.
Protocol: Internally labeled SE RNA (2 nM) was incubated with various concentrations of inhibitor compound under near-physiological conditions (in 50 mM MOPS, pH 7.5, 8 mM MgCl2, 100 mM KCl) at 30° C. Aliquots at different time points were quenched and analyzed on 5% denaturing polyacrylamide gel as previously described (Daniels et al., 1996, Journal of molecular biology, 256:31-49). Data were fit to a single-exponential equation to determine the first order rate constants (kobs). The latter were then plotted against the concentration of the inhibitor and fit to the equation for non-competitive inhibition to determine Ki values: kobs=kmax/(1+[I]/Ki), where kobs and kmax are the first order rate constants measured in the presence and in the absence of the inhibitor, respectively, [I] is the concentration of the inhibitor and Ki is the inhibition constant. Experiments were performed four times for API-014, three times for APY-090, Intronistat A, and Intronistat B and twice for the remaining compounds to ensure reproducibility. Data represent average±s.e.m.

Row | SMILES | MIC (C. parapsilosis) [µg/mL] | IC50 [1] [µM] | Ki (ai5γ group II intron) [µM] | IC50 (HEK-293T cells) [µg/mL]
1 | O=C(N/N=C/c1ccccc1O)c1cc(O)c(O)c(O)c1 [APY-021] | 32 (≈ 111 µM) | 14 | 9.4 | –
2 | O=C(c1cc(O)c(O)c(O)c1)N1CCC(c2ccccc2)C1 (stereo not drawn) [APY-086] | 64 (≈ 214 µM) | 61 | – | 43.7
3 | O=C(c1cc(O)c(O)c(O)c1)N1CCc2ccccc2C1 [APY-085] | 32 (≈ 112 µM) | 6.4 | – | 18.7
4 | COc1ccc(/C=N/NC(=O)c2cc(O)c(O)c(O)c2)cc1OC [APY-041] | 8 (≈ 24.1 µM) | 3.8 | – | 49.5
5 | O=C(N/N=C/c1ccc(O)c(Cl)c1)c1cc(O)c(O)c(O)c1 [APY-034] | 8 (≈ 24.8 µM) | 4.7 | – | 54.5
6 | CN(C)c1ccc(/C=N/NC(=O)c2cc(O)c(O)c(O)c2)cc1 [NED-2048, (E)-N′-(4-(dimethylamino)benzylidene)-3,4,5-trihydroxybenzohydrazide] | 4 to 8 (≈ 12.7 to 25.4 µM) | 4 ± 1 | – | 9.8
7 | O=C(N/N=C/c1cccc(O)c1O)c1cc(O)c(O)c(O)c1 [APY-037] | 8 (≈ 26.3 µM) | 3.7 | – | 5.4
8 | O=C(N/N=C/c1ccc(O)cc1)c1cc(O)c(O)c(O)c1 [APY-032] | 8 (≈ 27.8 µM) | 10.6 | – | 4.14
9 | CS(=O)(=O)c1ccc(C(=O)c2cc3cc(-c4ccc(CO)cc4)ccc3o2)cc1 [APY-099] | > 128 | > 1000 | – | 8.2

Second part, led by results:

Row | MIC (C. parapsilosis) [µg/mL] | IC50 [1] [µM] | Ki (ai5γ group II intron) [µM] | SMILES | IC50 (HEK-293T cells) [µg/mL]
10 | 2 (≈ 5.68 µM) | 1.35 ± 0.15 | – | COc1ccc2cc(/C=N/NC(=O)c3cc(O)c(O)c(O)c3)ccc2c1 [NED-2136] | 1
11 | 2 (≈ 6.21 µM) | 0.8 ± 0.2 | – | O=C(N/N=C/c1ccc2ccccc2c1)c1cc(O)c(O)c(O)c1 [NED-2135, (E)-3,4,5-trihydroxy-N′-(naphthalen-2-ylmethylene)benzohydrazide] | 2.4
12 | 2 to 4 (≈ 6.21 to 12.4 µM) | 3.3 ± 1 | – | O=C(N/N=C/c1cccc2ccccc12)c1cc(O)c(O)c(O)c1 [NED-2134, (E)-3,4,5-trihydroxy-N′-(naphthalen-1-ylmethylene)benzohydrazide] | 4.2
13 | 4 (≈ 11.5 µM) | 7.7 | – | COc1cc(/C=N/NC(=O)c2cc(O)c(O)c(O)c2)cc(O)c1OC [APY-036] | 10.4
14 | 4 (≈ 12.2 µM) | 10.1 | – | COc1ccc(/C=C/C=N/NC(=O)c2cc(O)c(O)c(O)c2)cc1 [APY-058] | 23
